Data as given in US6835735B2, “4-(phenylamino)-[1,4]dioxano[2,3-g]quinazoline derivatives and process for preparing the same” (Korea Institute of Science and Technology, priority 2001, dated 2004).
In brackets after ≈: the same amount, converted by molar mass. Structures can show the parent of a compound that is named as a salt.

Legend:
[1] = target: T1, purified human EGFR kinase (Homo sapiens, UniProt P00533); assay: Inhibition of EGFR tyrosine kinase (P32-ATP, biotin-conjugated substrate); format: biochemical; conditions: for IC50: purified human EGFR kinase, 50 μM ATP, 30° C., 10 min
T1 construct: purchased Promega
Protocol: The test was accomplished in a 20 μl reaction volume using 0.1 unit per reaction of purified human EGFR kinase (Promega, U.S.A.) and 50 μM biotin-conjugated substrate for tyrosine kinase (Promega, U.S.A.) and, 50 μM P^32-γ-ATP (0.2 μCi) and 20 mM Tris-HCl (pH 7.5) were employed as an ATP and a reaction solution, respectively. The test was carried out at 30° C. for 10 min, and terminated by the addition of 10 μl of 30% phosphate solution. The half of the reaction product was spotted onto avidin-layered PVDF membrane, which was then washed with 20 mM Tris-HCl (pH 8.0) and 0.2N NaCl aqueous solution for more than 2 hours.

A431 cancer cell = assay: Inhibition of cancer cell growth (sulforhodamine B); format: cell-based; conditions: for GI50: Homo sapiens, A-431, 48 h; for GI50 / A431 GI50: A431 cells, grown 2 days with compound, SRB staining; for inhibitory effect of cancer cell growth compared with standard material DP153035: A431, comparison drawn from Table 3
Protocol: A431 cancer cell was cultivated at 37° C. under an environment of 5% (v/v) CO2 employing RPMI 1640 medium containing 10% (v/v) fetal calf serum. […] The above cells was grown again for 2 days, and then, fixed with formalin solution (Sigma Chem. Co., U.S.A.) and washed with water. After that, the cells was dried in the atmosphere, stained with 0.1% (v/v) sulforhodamine B solution (Sigma Chem. Co., U.S.A.) for 30 min and wash with 1% (v/v) acetic acid aqueous solution. Then, dye attached to cells was extracted with 0.1M Tris-HCl (pH 8.0) and the absorbances of the remaining culture were measured at 520 nm by the aid of microplate reader. And then, the concentration of the compound by which cell growth is 50% inhibited was represented as GI50(s: Table 3).

[2] = Measurement of the solubility of compounds in water (HPLC calibration curve); format: physicochemical; conditions: supersaturated in 1 ml of water, centrifuged, supernatant by HPLC; for solubility thermodynamic: read-out: Solubility (mg/10 ml of water)
Protocol: That is, 1 mg of each of the above compounds was completely dissolved in 1 ml of DMSO, which was then subjected to HPLC employing C18 resin, and the peak area of chromatogram was calculated. And then, 1 mg of each of the same compound was dissolved in 10 ml of DMSO, which was then subjected to the same HPLC as the above to obtain a chromatogram, and the peak area was calculated therefrom. A solubility calibration curve was prepared by employing the above two data, and a linear function was deduced from that to complete a calibration curve (X axis: area, Y axis: logarithm value of concentration).
Each of the same compounds was supersaturated in 1 ml of water, which was then centrifuged at 14,000 rpm for 1 min. The precipitate was separated from the supernatant which was then subjected to the same HPLC as the above to obtain a chromatogram, and the peak area was calculated therefrom. The obtained value was substituted to the above calibration curve to measure the solubility by mg/10 ml of water (see: Table 1).

[3] = background statement; cited from earlier work

T1 sequence (P00533 25-1210): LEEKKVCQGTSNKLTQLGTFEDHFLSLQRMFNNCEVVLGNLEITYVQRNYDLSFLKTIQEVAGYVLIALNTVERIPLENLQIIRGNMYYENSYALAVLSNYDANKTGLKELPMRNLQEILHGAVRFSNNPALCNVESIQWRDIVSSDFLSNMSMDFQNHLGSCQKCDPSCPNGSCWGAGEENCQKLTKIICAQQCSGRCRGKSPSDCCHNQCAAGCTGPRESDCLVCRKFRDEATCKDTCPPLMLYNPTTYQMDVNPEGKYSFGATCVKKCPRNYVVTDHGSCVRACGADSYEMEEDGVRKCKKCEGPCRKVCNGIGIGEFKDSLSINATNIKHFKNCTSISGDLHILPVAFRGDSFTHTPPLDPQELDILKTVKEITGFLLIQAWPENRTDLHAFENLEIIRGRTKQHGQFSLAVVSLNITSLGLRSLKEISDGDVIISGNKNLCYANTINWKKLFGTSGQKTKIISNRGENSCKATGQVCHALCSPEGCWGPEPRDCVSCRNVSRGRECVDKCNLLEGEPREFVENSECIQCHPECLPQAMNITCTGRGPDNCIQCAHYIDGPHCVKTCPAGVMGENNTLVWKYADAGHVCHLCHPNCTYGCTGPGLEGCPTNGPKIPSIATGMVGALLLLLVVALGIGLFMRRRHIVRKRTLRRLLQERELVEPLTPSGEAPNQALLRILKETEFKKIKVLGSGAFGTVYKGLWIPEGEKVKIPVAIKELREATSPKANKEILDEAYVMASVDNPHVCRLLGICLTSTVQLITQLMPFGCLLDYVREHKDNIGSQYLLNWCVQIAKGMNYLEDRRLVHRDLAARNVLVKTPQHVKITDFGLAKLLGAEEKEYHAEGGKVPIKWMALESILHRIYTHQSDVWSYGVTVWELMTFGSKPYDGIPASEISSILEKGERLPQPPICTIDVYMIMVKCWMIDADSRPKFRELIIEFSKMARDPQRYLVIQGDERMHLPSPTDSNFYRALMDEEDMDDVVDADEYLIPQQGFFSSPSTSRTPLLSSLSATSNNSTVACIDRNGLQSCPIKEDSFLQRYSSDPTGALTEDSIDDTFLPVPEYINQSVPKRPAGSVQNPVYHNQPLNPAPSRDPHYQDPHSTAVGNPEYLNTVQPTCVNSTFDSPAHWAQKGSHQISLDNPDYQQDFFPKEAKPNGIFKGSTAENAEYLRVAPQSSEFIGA

| IC50 [1] | GI50 (A431 cancer cell) | SMILES | inhibitory effect of cancer cell growth compared with standard material DP153035 (A431 cancer cell) | further results |
| --- | --- | --- | --- | --- |
| 100 nM | 0.61 µg/mL (≈ 1.28 µM) | OCCN(CCO)CC1COc2cc3ncnc(Nc4cccc(Br)c4)c3cc2O1 (centres unmarked) [Example 25] | – | – |
| 101 nM | – | Brc1cccc(Nc2ncnc3cc4c(cc23)OC(CN2CCOCC2)CO4)c1 (centres unmarked) [Example 31, (3-bromophenyl)-[7-(morpholin-4-ylmethyl)-[1,4]dioxano[2,3-g]quinazolin-4-yl]amine hydrochloride] | better inhibitory effect of cancer cell growth than the standard material | Solubility (mg/10 ml of water) [2]: >>1,000 mg/10 ml of water; A431 GI50 (A431 cancer cell; hydrochloride): 0.19 µg/mL |
| – | – | Cl.Ic1cccc(Nc2ncnc3cc4c(cc23)OCC(CN2CCOCC2)O4)c1 (centres unmarked) [Example 30] | – | Solubility (mg/10 ml of water) [2]: >>1,000 mg/10 ml of water |
| 123 nM | – | CN1CCN(CC2COc3cc4ncnc(Nc5cccc(Br)c5)c4cc3O2)CC1 (centres unmarked) [Example 37, (3-bromophenyl)-[7-(4-methylpiperazin-1-yl)methyl-[1,4]dioxano[2,3-g]quinazolin-4-yl]amine hydrochloride] | – | A431 GI50 (A431 cancer cell; hydrochloride): 0.38 µg/mL |
| 35.5 nM | 0.24 µg/mL (≈ 0.597 µM) | COCC1COc2cc3ncnc(Nc4cccc(Br)c4)c3cc2O1 (centres unmarked) [Example 10, (3-bromophenyl)-(7-methoxymethyl-[1,4]-dioxano[2,3-g]quinazolin-4-yl)-amine] | better inhibitory effect of cancer cell growth than the standard material | solubility thermodynamic [2]: 241 µg/mL (≈ 599 µM) |
| > 256 nM | 0.43 µg/mL (≈ 1.1 µM) | COCC1COc2cc3ncnc(Nc4cccc(C(F)(F)F)c4)c3cc2O1 (centres unmarked) [Example 12, (3-trifluoromethylphenyl)-(7-methoxymethyl-[1,4]-dioxano[2,3-g]quinazolin-4-yl)-amine] | better inhibitory effect of cancer cell growth than the standard material | solubility thermodynamic [2]: 74 µg/mL (≈ 189 µM) |
| 8.91 nM | 0.22 µg/mL (≈ 0.468 µM) | CN1CCN(CC2COc3cc4ncnc(Nc5cccc(Br)c5)c4cc3O2)CC1 (centres unmarked) [Example 28, (3-bromophenyl)-[7-(4-methylpiperazin-1-yl)methyl-[1,4]dioxano[2,3-g]quinazolin-4-yl]amine] | better inhibitory effect of cancer cell growth than the standard material | – |
| 28.2 nM | – | OCCNCC1COc2cc3ncnc(Nc4cccc(Br)c4)c3cc2O1 (centres unmarked) [Example 27, 2-[4-(3-bromophenylamine)-[1,4]dioxano[2,3-g]quinazolin-7-ylmethyl]amino-ethanol] | – | A431 GI50 (A431 cancer cell): 0.22 µg/mL |
| – | – | CN1CCN(CC2COc3cc4ncnc(Nc5cccc(I)c5)c4cc3O2)CC1.Cl (centres unmarked) [Example 36, (3-iodophenyl)-[7-(4-methylpiperazin-1-yl)methyl-[1,4]dioxano[2,3-g]quinazolin-4-yl]amine hydrochloride] | – | Solubility (mg/10 ml of water) [2]: >>1,000 mg/10 ml of water |
| > 255 nM | 1.89 µg/mL (≈ 4.83 µM) | C#Cc1cccc(Nc2ncnc3cc4c(cc23)O[C@H](COC)[C@@H](COC)O4)c1 [Example 48, (7,8-bismethoxymethyl[1,4]dioxano[2,3-g]quinazolin-4-yl)-[3-(ethynyl)phenyl]-amine] | – | – |
| – | 1.59 µg/mL (≈ 3.22 µM) | COC[C@H]1Oc2cc3ncnc(Nc4cccc(I)c4)c3cc2O[C@@H]1COC [Example 45, (7,8-bismethoxymethyl[1,4]dioxano[2,3-g]quinazolin-4-yl)-(3-iodophenyl)amine] | – | – |
| > 249 nM | 2.37 µg/mL (≈ 5.9 µM) | COC[C@H]1Oc2cc3ncnc(Nc4cccc(Cl)c4)c3cc2O[C@@H]1COC [Example 46, (7,8-bismethoxymethyl[1,4]dioxano[2,3-g]quinazolin-4-yl)-(3-chlorophenyl)-amine] | – | – |
| 34.7 nM | 0.21 µg/mL (≈ 0.535 µM) | COCC1COc2cc3ncnc(Nc4cc(Cl)cc(Cl)c4)c3cc2O1 (centres unmarked) [Example 13, (3,5-dichlorophenyl)-(7-methoxymethyl-[1,4]-dioxano[2,3-g]quinazolin-4-yl)-amine] | better inhibitory effect of cancer cell growth than the standard material | solubility thermodynamic [2]: 8 µg/mL (≈ 20.4 µM) |
| 49.9 nM | – | OCCNCC1COc2cc3ncnc(Nc4cccc(Br)c4)c3cc2O1 (centres unmarked) [Example 35, 2-[4-(3-bromophenylamine)-[1,4]dioxano[2,3-g]quinazolin-7-ylmethyl]amino ethanol hydrochloride] | better inhibitory effect of cancer cell growth than the standard material | Solubility (mg/10 ml of water) [2]: >>1,000 mg/10 ml of water; A431 GI50 (A431 cancer cell; hydrochloride): 0.95 µg/mL |
| – | 0.99 µg/mL (≈ 2.75 µM) | COc1cc2ncnc(Nc3cccc(Br)c3)c2cc1OC [DP153035, reference compound] | – | solubility thermodynamic [2]: 20 µg/mL (≈ 55.5 µM); solubility in water (in words) [3]: insolubility in water |
| 44.9 nM | – | OCCN(CCO)CC1COc2cc3ncnc(Nc4cccc(Br)c4)c3cc2O1 (centres unmarked) [Example 33, N-[4-(3-bromophenylamine)-[1,4]dioxano[2,3-g]quinazolin-7-ylmethyl]-N-(2-hydroxyethyl)]-2-ethanolamine hydrochloride] | better inhibitory effect of cancer cell growth than the standard material | Solubility (mg/10 ml of water) [2]: >>1,000 mg/10 ml of water; A431 GI50 (A431 cancer cell; hydrochloride): 0.67 µg/mL |
| > 211 nM | 1.9 µg/mL (≈ 4.01 µM) | CC(C)[C@H](CO)NCC1COc2cc3ncnc(Nc4cccc(Br)c4)c3cc2O1 (some centres unmarked) [Example 29] | – | – |
| – | – | COc1cc2ncnc(Nc3ccc(F)c(Cl)c3)c2cc1OCCCN1CCOCC1 [ZD 1839] | – | solubility in water (in words) [3]: does not have a high solubility |
| 63.1 nM | 0.13 µg/mL (≈ 0.284 µM) | Brc1cccc(Nc2ncnc3cc4c(cc23)OC(CN2CCOCC2)CO4)c1 (centres unmarked) [Example 23, (3-bromophenyl)-[7-(morpholine-4-ylmethyl)-[1,4]dioxano[2,3-g]quinazolin-4-yl]-amine] | – | – |
| 25.1 nM | 0.38 µg/mL (≈ 0.753 µM) | Ic1cccc(Nc2ncnc3cc4c(cc23)OC(CN2CCOCC2)CO4)c1 (centres unmarked) [Example 22, (3-iodophenyl)-[7-(morpholine-4-ylmethyl)-[1,4]dioxano[2,3-g]quinazolin-4-yl]-amine] | better inhibitory effect of cancer cell growth than the standard material | – |
| 97.7 nM | 0.6 µg/mL (≈ 1.6 µM) | COCC1COc2cc3ncnc(Nc4ccc(F)c(Cl)c4)c3cc2O1 (centres unmarked) [Example 17, (3-chloro-4-fluorophenyl)-(7-methoxymethyl-[1,4]-dioxano[2,3-g]quinazolin-4-yl)-amine] | better inhibitory effect of cancer cell growth than the standard material | – |
| 74.1 nM | 2.91 µg/mL (≈ 6.52 µM) | COC[C@H]1Oc2cc3ncnc(Nc4cccc(Br)c4)c3cc2O[C@@H]1COC [Example 44, (7,8-bismethoxymethyl[1,4]dioxano[2,3-g]quinazolin-4-yl)-(3-bromophenyl)-amine] | – | – |
| 4.19 nM | 1.98 µg/mL (≈ 5.25 µM) | COCC1COc2cc3ncnc(Nc4cc(F)c(F)c(F)c4)c3cc2O1 (centres unmarked) [Example 18, (3,4,5-trifluorophenyl)-(7-methoxymethyl-[1,4]-ioxano[2,3-g]quinazolin-4-yl)-amine] | – | solubility thermodynamic [2]: 45 µg/mL (≈ 119 µM); inhibitory effect on EGFR tyrosine kinase compared with standard material DP153035 ([1]; comparison drawn from Table 2): higher inhibitory effect than the standard material |
| > 285 nM | 0.06 µg/mL (≈ 0.171 µM) | COCC1COc2cc3ncnc(Nc4cc(C)cc(C)c4)c3cc2O1 (centres unmarked) [Example 15, (3,5-dimethylphenyl)-(7-methoxymethyl-[1,4]-dioxano[2,3-g]quinazolin-4-yl)-amine] | better inhibitory effect of cancer cell growth than the standard material | – |
| – | – | Cl.OCCNCC1COc2cc3ncnc(Nc4cccc(I)c4)c3cc2O1 (centres unmarked) [Example 34, 2-[4-(3-iodophenylamine)-[1,4]dioxano[2,3-g]quinazolin-7-ylmethyl]amino ethanol hydrochloride] | – | Solubility (mg/10 ml of water) [2]: >>1,000 mg/10 ml of water |
| – | – | COCC1COc2cc3ncnc(Nc4ccc(C)c(Cl)c4)c3cc2O1 (centres unmarked) [Example 16, (3-chloro-4-methylphenyl)-(7-methoxymethyl-[1,4]-dioxano[2,3-g]quinazolin-4-yl)-amine] | – | solubility thermodynamic [2]: 457 µg/mL (≈ 1230 µM) |
